These compounds were tested against T1, INaL v1.6 (Nav late current, recombinant sodium channels) (Homo sapiens, UniProt Q9UQD0) (assay: PatchXpress electrophysiology, ATX-II evoked Nav late current (INaL) in HEK-293 cells expressing recombinant sodium channels). Settings: HEK293, compound at 1 μM, late current evoked by ATX-II 300 nM, steady state block.
T1 construct: expressed in transfected cells; host or cells: HEK-293
T1 sequence (Q9UQD0 whole entry): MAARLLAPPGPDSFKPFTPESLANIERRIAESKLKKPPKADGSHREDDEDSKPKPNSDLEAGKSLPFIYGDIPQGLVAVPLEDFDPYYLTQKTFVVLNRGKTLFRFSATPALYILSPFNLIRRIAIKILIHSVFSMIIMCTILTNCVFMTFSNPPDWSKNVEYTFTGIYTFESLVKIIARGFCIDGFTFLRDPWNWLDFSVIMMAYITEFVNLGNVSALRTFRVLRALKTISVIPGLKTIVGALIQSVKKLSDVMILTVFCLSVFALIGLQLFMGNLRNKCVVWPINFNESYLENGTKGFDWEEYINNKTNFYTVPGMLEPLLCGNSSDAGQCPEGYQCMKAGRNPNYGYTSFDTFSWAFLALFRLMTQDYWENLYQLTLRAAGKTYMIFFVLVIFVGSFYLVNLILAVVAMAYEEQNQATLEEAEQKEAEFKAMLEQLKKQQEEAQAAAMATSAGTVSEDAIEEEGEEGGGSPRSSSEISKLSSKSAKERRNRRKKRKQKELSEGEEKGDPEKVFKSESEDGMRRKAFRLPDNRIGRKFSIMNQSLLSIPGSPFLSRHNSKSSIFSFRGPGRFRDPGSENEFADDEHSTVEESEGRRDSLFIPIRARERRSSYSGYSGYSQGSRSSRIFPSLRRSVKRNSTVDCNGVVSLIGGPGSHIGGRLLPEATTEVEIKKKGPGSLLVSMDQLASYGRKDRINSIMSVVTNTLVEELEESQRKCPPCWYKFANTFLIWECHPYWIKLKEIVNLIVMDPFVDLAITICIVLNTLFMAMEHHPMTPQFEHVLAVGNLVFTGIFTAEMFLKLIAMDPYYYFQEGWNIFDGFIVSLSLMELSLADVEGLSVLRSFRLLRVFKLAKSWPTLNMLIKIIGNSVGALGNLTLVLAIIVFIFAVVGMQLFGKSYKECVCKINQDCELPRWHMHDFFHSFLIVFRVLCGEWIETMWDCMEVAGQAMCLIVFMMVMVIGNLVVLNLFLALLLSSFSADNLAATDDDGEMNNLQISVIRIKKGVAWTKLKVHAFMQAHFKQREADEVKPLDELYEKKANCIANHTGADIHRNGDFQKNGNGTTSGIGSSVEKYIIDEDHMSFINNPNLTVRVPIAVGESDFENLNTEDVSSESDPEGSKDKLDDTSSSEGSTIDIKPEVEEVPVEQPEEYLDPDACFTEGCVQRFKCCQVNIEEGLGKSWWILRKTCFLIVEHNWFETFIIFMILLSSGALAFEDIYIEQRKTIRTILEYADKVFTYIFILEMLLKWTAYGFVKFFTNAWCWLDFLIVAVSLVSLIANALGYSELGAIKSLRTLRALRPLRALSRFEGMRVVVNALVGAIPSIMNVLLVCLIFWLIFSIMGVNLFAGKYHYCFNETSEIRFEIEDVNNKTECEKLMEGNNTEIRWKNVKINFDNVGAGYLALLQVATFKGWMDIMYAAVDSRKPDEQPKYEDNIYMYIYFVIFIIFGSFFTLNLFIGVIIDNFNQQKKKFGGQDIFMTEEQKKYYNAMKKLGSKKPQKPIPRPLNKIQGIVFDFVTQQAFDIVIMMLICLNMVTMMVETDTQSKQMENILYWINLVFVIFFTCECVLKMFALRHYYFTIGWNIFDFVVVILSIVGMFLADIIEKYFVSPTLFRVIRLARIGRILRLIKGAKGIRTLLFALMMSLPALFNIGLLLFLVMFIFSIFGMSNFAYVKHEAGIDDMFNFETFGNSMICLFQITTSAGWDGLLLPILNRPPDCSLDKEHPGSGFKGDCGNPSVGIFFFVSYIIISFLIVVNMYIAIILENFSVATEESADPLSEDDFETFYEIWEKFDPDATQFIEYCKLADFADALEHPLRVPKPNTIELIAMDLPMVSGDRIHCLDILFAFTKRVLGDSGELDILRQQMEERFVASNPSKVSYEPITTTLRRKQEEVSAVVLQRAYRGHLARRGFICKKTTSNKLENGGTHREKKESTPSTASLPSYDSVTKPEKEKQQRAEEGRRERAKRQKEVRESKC
Type: cell-based
Method: Functional characterization of exemplary compounds to modulate voltage gated sodium currents was accomplished using the PatchXpress™ high throughput electrophysiology platforms (Molecular Devices, Sunnyvale, CA). HEK-293 cells expressing recombinant sodium channels were grown in DMEM/high-glucose Dulbecco's modified, 10% FBS, 2 mM sodium pyruvate, and G418. Nav channel expressing cells were grown to 50%-80% confluency and harvested by trypsinization. Trypsinized cells were washed and resuspended in extracellular buffer at a concentration of 1×10^6 cells/ml. The onboard liquid handling facility of the PatchXpress was used for dispensing cells and application of test compounds. Nav late currents were evoked by the application of ATX-II, 300 nM. Currents were evoked by depolarizing pulses to 0 mV for 200 ms from a non-inactivating holding potential (e.g., −120 mV to −150 mV) at a frequency of 0.1 Hz. Late current amplitude and stability were determined by analyzing the mean current amplitude over the 175-195 msec region of the 200 msec test pulse. Following steady state block with exemplary compounds (e.g., as described herein) at 1 μM, a Na free solution containing an impermeant cation (e.g., Choline or NDMG) was added for determination of the 0 current level. Late current amplitudes for each test condition were determined from the mean of the 175-195 msec region of the 200 msec test pulse. Percent inhibition of steady state currents was calculated as (compound-baseline)/(control-baseline)*100, where control represents INaL recorded in the absence of compound.
With C[C@H](Oc1ncc(-c2ccc3nnc(C(F)(F)F)n3c2)cc1F)C(F)(F)F [Example 1, 6-[5-fluoro-6-[(1S)-2,2,2-trifluoro-1-methyl-ethoxy]-3-pyridyl]-3-(trifluoromethyl)-[1,2,4]triazolo[4,3-a]pyridine] the inhibition at 1 µM was > 75%.
For C[C@@H](Oc1ncc(-c2ccc3nnc(C(F)(F)F)n3c2)cc1F)C(F)(F)F [Example 2, 6-[5-fluoro-6-[(1R)-2,2,2-trifluoro-1-methyl-ethoxy]-3-pyridyl]-3-(trifluoromethyl)-[1,2,4]triazolo[4,3-a]pyridine], the inhibition at 1 µM was > 75%.
In the case of C[C@H](Oc1ncc(-c2ccc3nnc(C(F)F)n3c2)cc1F)C(F)(F)F [Example 4, 3-(difluoromethyl)-6-[5-fluoro-6-[(1S)-2,2,2-trifluoro-1-methyl-ethoxy]-3-pyridyl]-[1,2,4]triazolo[4,3-a]pyridine], the inhibition at 1 µM is reported as > 75%.
With CC(C)(Oc1ncc(-c2ccc3nnc(C(F)(F)F)n3c2)cc1F)C(F)(F)F [Example 6, 6-[5-fluoro-6-(2,2,2-trifluoro-1,1-dimethyl-ethoxy)-3-pyridyl]-3-(trifluoromethyl)-[1,2,4]triazolo[4,3-a]pyridine] the inhibition at 1 µM was > 75%.
Fc1cc(-c2ccc3nnc(C(F)(F)F)n3c2)cnc1OC1(C(F)(F)F)CCC1 [Example 7, 6-[5-fluoro-6-[1-(trifluoromethyl)cyclobutoxy]-3-pyridyl]-3-(trifluoromethyl)-[1,2,4]triazolo[4,3-a]pyridine] was tested, and the inhibition at 1 µM was > 75%.
Work on Fc1cc(-c2ccc3nnc(C(F)(F)F)n3c2)cnc1OC1(C(F)(F)F)COC1 [Example 8, 6-[5-fluoro-6-[3-(trifluoromethyl)oxetan-3-yl]oxy-3-pyridyl]-3-(trifluoromethyl)-[1,2,4]triazolo[4,3-a]pyridine] yielded an inhibition at 1 µM of 50 to 75%.
With C[C@@H](Oc1ncc(-c2ccc3nnc(C(F)F)n3c2)cc1F)C(F)(F)F [Example 3, 3-(difluoromethyl)-6-[5-fluoro-6-[(1R)-2,2,2-trifluoro-1-methyl-ethoxy]-3-pyridyl]-[1,2,4]triazolo[4,3-a]pyridine] the inhibition at 1 µM was > 75%.
CC(C)(Oc1ncc(-c2ccc3nnc(C(F)F)n3c2)cc1F)C(F)(F)F [Example 5, 3-(difluoromethyl)-6-[5-fluoro-6-(2,2,2-trifluoro-1,1-dimethyl-ethoxy)-3-pyridyl]-[1,2,4]triazolo[4,3-a]pyridine] was tested, and the inhibition at 1 µM was > 75%.
Fc1cc(-c2ccc3nnc(C(F)(F)F)n3c2)cnc1OCC(F)(F)F [Example 10, 6-[5-fluoro-6-(2,2,2-trifluoroethoxy)-3-pyridyl]-3-(trifluoromethyl)-[1,2,4]triazolo[4,3-a]pyridine] was tested, and the inhibition at 1 µM was > 75%.
Fc1cc(-c2ccc3nnc(C(F)F)n3c2)cnc1OCC(F)(F)F [Example 9, 3-(difluoromethyl)-6-[5-fluoro-6-(2,2,2-trifluoroethoxy)-3-pyridyl]-[1,2,4]triazolo[4,3-a]pyridine] gave an inhibition at 1 µM of 50 to 75%.
